Measured values published in PubChem BioAssay (NCI).
Several values for one entry are separate records, joined by “and”; a condition that tells them apart may be missing. Equal values may be shown once.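 Protocol summary: plate cells (96-well), add compound at 5 concentrations, incubate 48 h, interpolate endpoints linearly. At the GI50, growth is halved. At the TGI there is no net growth.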

Key:
Assay in all cases: growth of human tumour cells (NCI), 48 h
MDA-MB-435 = test system: MDA-MB-435
RXF 393 renal = test system: RXF 393 renal
PC-3 prostate = test system: PC-3 prostate
786-0 renal = test system: 786-0 renal
HT29 colon = test system: HT29 colon
SK-OV-3 ovarian = test system: SK-OV-3 ovarian
SW-620 colon = test system: SW-620 colon
HOP-62 NSCLC = test system: HOP-62 NSCLC
HL-60(TB) leukemia = test system: HL-60(TB) leukemia
U251 CNS = test system: U251 CNS

Row | SMILES | GI50 (MDA-MB-435) [µM] | TGI (MDA-MB-435) [µM] | GI50 (RXF 393 renal) [µM] | TGI (RXF 393 renal) | GI50 (PC-3 prostate) [µM] | TGI (PC-3 prostate) | GI50 (786-0 renal) [µM] | TGI (786-0 renal) [µM] | GI50 (HT29 colon) [µM] | TGI (HT29 colon) | GI50 (SK-OV-3 ovarian) [µM] | TGI (SK-OV-3 ovarian) [µM] | GI50 (SW-620 colon) [µM] | TGI (SW-620 colon) [µM] | GI50 (HOP-62 NSCLC) [µM] | TGI (HOP-62 NSCLC) | GI50 (HL-60(TB) leukemia) [nM] | TGI (HL-60(TB) leukemia) [µM] | GI50 (U251 CNS) [µM] | TGI (U251 CNS) [µM]
1 | O=C1Nc2ccc(CN3CCOC3=O)cc2/C1=C/c1cc(CN2CCOCC2)c[nH]1 | 18.7 | > 100 | 18.3 | > 72.3 µM | 36.9 | > 100 µM | 62.5 | > 100 | 34.6 | > 100 µM | 98.9 | > 100 | 37.9 | > 100 | 42.7 | > 100 µM | 25100 | > 80.7 | > 75.6 | > 100
2 | CC(C)C[C@H]1C(=O)N2CCC[C@H]2[C@]2(O)O[C@](NC(=O)[C@@H]3C=C4c5cccc6[nH]c(Br)c(c56)C[C@H]4N(C)C3)(C(C)C)C(=O)N12 |  | > 100 |  | > 100 µM |  | > 100 µM |  | > 100 |  | > 100 µM |  | > 100 |  | > 100 |  | > 100 µM |  | 28.1 |  | > 100
3 | O=C(c1ccccc1)c1ccc(O)c2ncccc12 | 6.13 | 97.5 | 3.18 | 19.6 µM | 4.36 | 97.6 µM | 5.09 | 26.5 | 10.1 | > 100 µM | 6.02 | 19.1 | 4.07 | 17.9 | 5.31 | 48.6 µM | 2090 | 8.82 | 5.93 | 26.2
4 | C=C1C(=O)O[C@H]2[C@H]1CC/C(COC(=O)C(=O)c1c[nH]c3ccc(Cl)cc13)=C\CC[C@@]1(C)O[C@@H]21 | 1.8 | 4.23 | 1.4 | 2.79 µM | 1.76 | 3.57 µM | 1.53 | 2.93 | 0.781 | 3.01 µM | 11.6 | 24.1 | 1.67 | 10.3 | 1.63 | 3.66 µM | 1910 | 5.09 | 1.9 | 3.45
5 | CCCC(CCC)Oc1ccc(CCCC2=C(O)c3ccccc3C(=O)C2=O)cc1 | 4.72 | 17.6 | 5.75 | 21.5 µM | 3 | 15.7 µM | 4.11 | 16.8 | 6.2 | 17.9 µM | 12.6 | 28.3 | 4.61 | 17 | 7.6 | 22.3 µM | 2680 | 6.27 | 5.37 | 17.5
6 | Cc1cc(S(=O)(=O)Nc2nc3ccccc3[nH]2)c(SCc2ccccc2)cc1Cl | > 100 | > 100 | > 100 | > 100 µM | > 100 | > 100 µM | 62.9 | > 100 |  |  | 70.3 | > 100 | > 100 | > 100 | 22.7 | > 100 µM | > 100000 | > 100 | 14.9 | 50.7
7 | Cc1cccc2c(N=Nc3ccccc3[N+](=O)[O-])c(O)[nH]c12 |  | > 100 |  | 16.6 µM |  | 38.4 µM |  | 11.8 |  | > 52.7 µM |  | 21.8 |  | > 74.6 |  | 21.8 µM |  | > 100 |  | 7.68
8 | CC(=O)Oc1ccccc1C(=O)NCCC[Se]C#N | 2.19 | 5.16 | 2.67 | 6.7 µM | 1.93 | 5.47 µM | 2.1 | 4.38 | 3.51 | 11.2 µM | 3.33 | 6.16 | 3.47 |  | 1.51 | 2.92 µM | 2090 | 5.49 | 1.6 | 2.95
9 | CCOc1ccc(NC(=O)c2cc3ccccc3cc2O)cc1 | > 100 | > 100 | 19 | 40.2 µM | > 100 | > 100 µM | 28.4 | 74.5 | > 100 | > 100 µM | 27.8 | > 100 | > 100 | > 100 | 27.7 | 81.5 µM | 22300 | > 100 | 45.9 | > 100
10 | O=C(O)c1nnsc1-c1csnn1 |  | > 100 |  | > 100 µM |  | > 100 µM |  | > 100 |  | > 100 µM |  | > 100 |  | > 100 |  | > 100 µM |  | > 100 |  | > 100
11 | Nc1cc(N)cc(Cc2ccccc2)c1 |  | > 100 |  | > 100 µM |  | > 100 µM |  | > 100 |  | > 100 µM |  | > 100 |  | > 100 |  | > 100 µM |  | > 100 |  | > 100
12 | COc1ccc(C2SCC(=O)N2NC(=O)C(O)c2ccccc2)cc1 (stereo not given) | > 100 | > 100 | > 100 | > 100 µM | > 100 | > 100 µM | > 100 | > 100 | > 100 | > 100 µM | > 100 | > 100 | > 100 | > 100 | > 100 | > 100 µM | > 100000 | > 100 | > 100 | > 100
13 | c1ccc2c(-c3cnn4cc(-c5ccc(N6CCNCC6)cc5)cnc34)ccnc2c1 | 0.556 | 1.91 | 1.04 | 2.45 µM | 0.316 | 1.52 µM | 0.527 | 1.03 | 0.547 | 1.91 µM | 1.38 | 2.71 | 0.335 | 1.37 | 0.634 | 1.24 µM | 461 | 0.969 | 0.278 | 1.08
14 | Clc1ccc(N/N=C(\c2ccccc2)c2ccccn2)nc1 | 0.42 | > 55.9 | 0.275 | 7.38 µM and 28.5 µM | 0.112 | > 67.8 µM and 28.9 µM | 0.291 | 15.8 | 0.0364 | > 37.2 µM and 10.8 µM |  | > 100 | 0.0958 | > 65.3 | 0.31 | > 33.7 µM and 12.3 µM | 86.8 |  | 0.344 | > 68
